{"source": "ChEMBL document CHEMBL1131310", "about": "(J Med Chem, 1998)", "key": {"Gallus gallus": {"organism": "Gallus gallus", "assay": "The compound was evaluated for neurite outgrowth from chick dorsal root ganglia", "format": "functional"}, "[1]": {"target": "Peptidyl-prolyl cis-trans isomerase FKBP1A (Homo sapiens, UniProt P62942)", "sequence (P62942 whole entry)": "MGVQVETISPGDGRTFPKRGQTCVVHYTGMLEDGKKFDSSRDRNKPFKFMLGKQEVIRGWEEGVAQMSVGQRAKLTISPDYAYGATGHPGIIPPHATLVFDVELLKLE", "assay": "The compound was tested for binding affinity against rotamase"}}, "note": "Several values for one entry are separate records, joined by “and”; a condition that tells them apart may be missing. Identical values can stand only once.", "data": [{"smiles": "CCC(C)(C)C(=O)C(=O)N1CCCC[C@H]1C(=O)O[C@H](CCc1ccccc1)c1ccccc1", "values": [{"measurement": "ED50", "setting": "Gallus gallus", "result": 0.3, "unit": "nM"}]}, {"smiles": "CCC(C)(C)C(=O)C(=O)N1CCCC[C@H]1C(=O)OCCCc1cccnc1", "values": [{"measurement": "Ki", "setting": "[1]", "result": 165, "unit": "nM"}, {"measurement": "ED50", "setting": "Gallus gallus", "result": 8.5, "unit": "nM"}]}, {"smiles": "CCC(C)(C)C(=O)C(=O)N1CCCC[C@H]1C(=O)OCCCc1ccccc1", "values": [{"measurement": "Ki", "setting": "[1]", "result": "250 nM and 110 nM"}, {"measurement": "ED50", "setting": "Gallus gallus", "result": 300, "unit": "nM"}]}, {"smiles": "CCC(C)(C)C(=O)C(=O)N1CCC[C@H]1C(=O)OCCCc1ccccc1", "values": [{"measurement": "ED50", "setting": "Gallus gallus", "result": 53, "unit": "nM"}]}, {"smiles": "CCC(C)(C)C(=O)C(=O)N1CCC[C@H]1C(=O)OCCCc1cccnc1", "note": "[GPI-1046]", "values": [{"measurement": "ED50", "setting": "Gallus gallus", "result": 0.05, "unit": "nM"}]}]}
